Assay [1] concerns human colon adenocarcinoma cell lines (HCT-116). As to the kind of experiment: Determination of cell proliferation inhibition (Sulforodamine B). The conditions noted are these: HCT-116, 48 hours treatment. It is filed as cell-based. The method, then: The inhibitory capacity of cell proliferation of the compounds was determined in two human colon adenocarcinoma cell lines (HCT-116) obtained at the ATCC (American Type Collection). The cells were seeded in 96-well plates and kept at 37° C. in a CO2 heater for 24 hours to allow cell-substrate-adhesion. Subsequently, cells were treated with the products under study at concentrations comprised between 1 and 100 μM for 48 hours. After the treatment period, the medium was removed and cells were dyed with Sulforodamine B. Finally, decolouration of the dyed cells was carried out with Tris base 10 mM and the plates were read at 493-530 nm in a plate reader. IC50 was calculated as the product concentration inducing a growth inhibition of the 50% compared with control cells not treated.

Assay [2] deals with human colon cancer cell lines HCT-116. As to the kind of experiment: Determination of apoptosis (DNA fragmentation into nucleosomes, Cell Death Detection ELISA PLUS). It is filed as cell-based. Particulars: HCT-116, at 10 μM. Here is the method:
To stablish whether the antiproliferative activity of the compounds of the present invention is due to an apoptotic process, and not merely to a necrotic process, the generation of DNA fragments associated to histones (mono- and oligonucleosomes) was determined after incubation of the human colon cancer cell lines HCT-116 with the compounds of the present invention at different concentrations. DNA fragmentation into nucleosomes, which is an indicator of apoptosis phenomena, was quantified by a sandwich immunoassay using monoclonal antibodies directed against DNA and histones (Cell Death Detection ELISA^PLUS, Roche Diagnostics, cat #1920685). The quantity of fragmented DNA was expressed with the Enrichment Factor (EF) parameter, which is a coefficient of absorbance of nucleosomes liberated in the cytosol of the cells cultured in the presence of the products compared with control cells.

In another assay the target is T1, COX-2 (Homo sapiens, UniProt P35354).
T1 sequence (P35354 18-604): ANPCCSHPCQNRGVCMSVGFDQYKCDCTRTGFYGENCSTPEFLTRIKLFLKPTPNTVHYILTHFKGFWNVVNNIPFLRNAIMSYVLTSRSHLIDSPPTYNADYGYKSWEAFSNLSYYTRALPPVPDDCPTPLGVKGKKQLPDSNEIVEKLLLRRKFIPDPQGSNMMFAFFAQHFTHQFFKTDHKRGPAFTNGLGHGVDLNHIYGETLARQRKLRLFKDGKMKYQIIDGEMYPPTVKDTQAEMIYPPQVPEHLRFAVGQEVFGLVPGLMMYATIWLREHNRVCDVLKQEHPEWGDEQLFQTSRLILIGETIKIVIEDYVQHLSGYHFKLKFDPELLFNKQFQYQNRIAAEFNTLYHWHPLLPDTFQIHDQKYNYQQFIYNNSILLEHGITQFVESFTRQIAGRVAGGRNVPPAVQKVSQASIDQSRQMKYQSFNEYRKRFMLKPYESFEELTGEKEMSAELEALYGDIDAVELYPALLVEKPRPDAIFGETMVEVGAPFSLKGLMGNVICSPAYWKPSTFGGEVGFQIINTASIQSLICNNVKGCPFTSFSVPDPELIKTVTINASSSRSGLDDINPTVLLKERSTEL
As to the kind of experiment: COX-2 inhibition. It counts as biochemical.

From patent US20060189631A1, “Substituted imidazopyrimidines for the prevention and treatment of cancer” (LABORATORIOS S.A.L.V.A.T., S.A., priority 2003, published 2006) come the findings set out here.

For the compound `Cc1ccc(-c2nc3ncccn3c2-c2ccc(SC(C)C)c(Cl)c2)cc1` [Example 153, 3-(3-Chloro-4-isopropylsulfanylphenyl)-2-p-tolylimidazo[1,2-a]pyrimidine], the results for the half-maximal inhibitory concentration (IC50) (in assay [1]; on COX-2) were less than 5 µM and greater than 25 µM, respectively. The “EF (Apoptosis induction, Enrichment Factor)” value (“EF” for short) in assay [2] is given as “+++ (EF > 6)”.

Regarding `CSc1ccc(-c2c(-c3ccc(Cl)cc3)nc3ncccn23)cc1Cl` [Example 238, 3-(3-Chloro-4-methylsulfanylphenyl)-2-(4-chlorophenyl)imidazo[1,2-a]pyrimidine], the IC50 is less than 5 µM in assay [1] and greater than 25 µM against COX-2. In addition, the “EF” value in assay [2] is “+++ (EF > 6)”.

As for `CSc1ccc(-c2c(-c3ccc(Br)cc3)nc3ncccn23)cc1` [Example 13, 2-(4-Bromophenyl)-3-(4-methylsulfanylphenyl)imidazo[1,2-a]pyrimidine], the values for the IC50 (in assay [1]; at COX-2) were less than 5 µM and greater than 25 µM, respectively. For the same compound, in assay [2], the “EF” value is given as “+++ (EF > 6)”.

In the case of `CSc1ccc(-c2c(-c3cccc(C)c3)nc3ncccn23)cc1Br` [Example 132, 3-(3-Bromo-4-methylsulfanylphenyl)-2-m-tolylimidazo[1,2-a]pyrimidine], the 50% inhibitory concentration (IC50) is less than 5 µM in assay [1] and greater than 25 µM at COX-2. The “EF” value in assay [2] is “+++ (EF > 6)”.

For `COc1ccc(-c2nc3ncccn3c2-c2ccc3c(c2)C(C)(C)CCS3)cc1` [Example 244, 3-(4,4-Dimethylthiochroman-6-yl)-2-(4-methoxyphenyl)imidazo[1,2-a]pyrimidine], the half-inhibitory concentration (IC50) in assay [1] was less than 5 µM; against COX-2, greater than 25 µM. In addition, the “EF” value in assay [2] is on record as “+++ (EF > 6)”.

Take `COc1ccc(-c2nc3ncccn3c2-c2ccc(SC)cc2)cc1` [Example 8, 2-(4-Methoxyphenyl)-3-(4-methylsulfanylphenyl)imidazo[1,2-a]pyrimidine]: the IC50 was less than 5 µM in assay [1] and 5 to 25 µM against COX-2. Moreover, in assay [2], the “EF” value was “+++ (EF > 6)”.

As to `COc1ccc(-c2nc3ncccn3c2-c2ccc(SC)c(Cl)c2)cc1` [Example 124, 3-(3-Chloro-4-methylsulfanylphenyl)-2-(4-methoxyphenyl)imidazo[1,2-a]pyrimidine], the IC50 in assay [1] was less than 5 µM; against COX-2 it was greater than 25 µM. Further, the “EF” value in assay [2] is “+++ (EF > 6)”.

In assay [1], `CSc1ccc(-c2nc3ncccn3c2-c2ccc(SC)c(Cl)c2)cc1` [Example 86, 3-(3-Chloro-4-methylsulfanylphenyl)-2-(4-methylsulfanylphenyl)imidazo[1,2-a]pyrimidine] came in with an IC50 of less than 5 µM. Further, in assay [2], the “EF” value is listed as “+++ (EF > 6)”.

In assay [1], `Cc1ccc(-c2cc(C(F)(F)F)nn2-c2ccc(S(N)(=O)=O)cc2)cc1` [Celecoxib, reference compound] showed an IC50 greater than 25 µM. Further, the “EF” value in assay [2] was “+ (EF < 3)”.

Regarding `CSc1ccc(-c2c(-c3ccc(F)cc3)nc3ncccn23)cc1Cl` [Example 240, 3-(3-Chloro-4-methylsulfanylphenyl)-2-(4-fluorophenyl)imidazo[1,2-a]pyrimidine], the figures for the IC50 (in assay [1]; at COX-2) were 5 to 25 µM and greater than 25 µM, respectively. The “EF” value in assay [2] is listed as “++ (3 < EF < 6)”.

Turning to `CC1=C(CC(=O)O)c2cc(F)ccc2/C1=C\c1ccc(S(C)(=O)=O)cc1` [Exisulind, reference compound], the IC50 (in assay [1]; at COX-2) was greater than 25 µM throughout. Further, the “EF” value in assay [2] was “+ (EF < 3)”.

Turning to `CSc1ccc(-c2c(-c3ccc(Cl)cc3)nc3ncccn23)cc1Br` [Example 136, 3-(3-Bromo-4-methylsulfanylphenyl)-2-(4-chlorophenyl)imidazo[1,2-a]pyrimidine], the half-inhibitory concentration (IC50) was less than 5 µM in assay [1] and greater than 25 µM against COX-2. The “EF” value in assay [2] is “+++ (EF > 6)”.

In the case of `COc1ccc(-c2nc3ncccn3c2-c2ccc(SC(C)C)cc2)cc1` [Example 151, 3-(4-Isopropylsulfanylphenyl)-2-(4-methoxyphenyl)imidazo[1,2-a]pyrimidine], the half-maximal inhibitory concentration (IC50) in assay [1] was less than 5 µM; against COX-2, greater than 25 µM. In assay [2], the “EF” value is listed as “+++ (EF > 6)”.

Turning to `CSc1ccc(-c2nc3ncccn3c2-c2ccc(SC(C)C)c(Cl)c2)cc1` [Example 157, 3-(3-Chloro-4-isopropylsulfanylphenyl)-2-(4-methylsulfanylphenyl)imidazo[1,2-a]pyrimidine], the figures for the IC50 (in assay [1]; against COX-2) were less than 5 µM and greater than 25 µM, respectively. In addition, the “EF” value in assay [2] is “+++ (EF > 6)”.

Take `CCCSc1ccc(-c2c(-c3ccc(OC)cc3)nc3ncccn23)cc1Cl` [Example 148, 3-(3-Chloro-4-propylsulfanylphenyl)-2-(4-methoxyphenyl)imidazo[1,2-a]pyrimidine]: the 50% inhibitory concentration (IC50) in assay [1] was less than 5 µM; on COX-2, greater than 25 µM. Further, the “EF” value in assay [2] is “+++ (EF > 6)”.

On to `COc1ccc(-c2nc3nc(C)ccn3c2-c2ccc(SC)c(Cl)c2)cc1` [Example 125, 3-(3-Chloro-4-methylsulfanylphenyl)-2-(4-methoxyphenyl)-7-methylimidazo[1,2-a]pyrimidine], for which, in assay [1], the IC50 was in the range of 5 to 25 µM. The “EF” value in assay [2] was “+++ (EF > 6)”.

On to `COc1ccc(-c2nc3ncccn3c2-c2ccc(SC)c(C)c2)cc1` [Example 138, 2-(4-Methoxyphenyl)-3-(3-methyl-4-methylsulfanylphenyl)imidazo[1,2-a]pyrimidine], for which the half-maximal inhibitory concentration (IC50) in assay [1] was less than 5 µM; at COX-2 it was greater than 25 µM. Besides, in assay [2], the “EF” value is “+++ (EF > 6)”.

With `COc1ccc(-c2nc3ncccn3c2-c2ccc([S+](C)[O-])c(Cl)c2)cc1` (stereo not drawn) [Example 189, 3-(3-Chloro-4-methanesulfinylphenyl)-2-(4-methoxyphenyl)imidazo[1,2-a]pyrimidine], the IC50 in assay [1] was 5 to 25 µM; on COX-2, greater than 25 µM. In assay [2], the “EF” value is given as “+++ (EF > 6)”.

By IC50 is commonly meant the concentration at which inhibition is half-maximal. A high value points to weaker potency in that assay.
